Source: patent publication US9591856B2, “Fungicide compositions comprising fluopyram, at least one succinate dehydrogenase (SDH) inhibitor and optionally at least one triazole fungicide” (priority 2012, dated 2017)

Key:
[1] = test system: Leptosphaeria nodorum (LEPTNO); test: Leptosphaeria nodorum test (wheat), field trial DEU-S826; format: in vivo; conditions: sprayed twice, 18 DAB, BBCH 69, 75 g/ha (I), 75 g/ha (II), 150 g/ha (III), 75 + 75 + 150 g/ha combination; for Rating Scale: % Rating Type: Mean (Plant Part Rated: LEALOW): disease rating, untreated control 23.1
[2] = test system: Septoria tritici (SEPTTR); test: Septoria tritici test (wheat), field trial FRA-AJ28; format: in vivo; conditions: sprayed twice, 47 DAB, BBCH 77, 75 g/ha (I), 75 g/ha (II), 150 g/ha (III), 75 + 75 + 150 g/ha combination; for Rating Scale: % Rating Type: Mean (Plant Part Rated: LEAF): disease rating, untreated control 95.0
[3] = test system: Pyrenophora tritici-repentis (PYRNTR); test: Pyrenophora tritici-repentis test (wheat), field trial DEU-NWU3; format: in vivo; conditions: sprayed twice, 43 DAB, BBCH 83, 75 g/ha (I), 75 g/ha (II), 150 g/ha (III), 75 + 75 + 150 g/ha combination; for Rating Scale: % Rating Type: Mean (Plant Part Rated: FL-0-1): disease rating, untreated control 2.8
[4] = test system: Drechslera tritici-repentis (DTR, also named Pyrenophora tritici-repentis); test: Curative potential against Drechslera tritici-repentis (tan spot) in winter wheat; format: in vivo; conditions: infected leaf area 21 days after inoculation; for Efficacy [% Abbott] 1 dai: application 1 day after inoculation; for Efficacy [% Abbott] 4 dai: application 4 days after inoculation
[5] = test system: Septoria tritici (Mycosphaerella graminicola); test: Protective and curative potential against Septoria tritici in winter wheat, quantification of Septoria-DNA (SeptoCast); format: in vivo; conditions: 21 days after inoculation, dose rates Table 5
[6] = test system: Septoria tritici (Mycosphaerella graminicola); test: Protective and curative potential against Septoria tritici in winter wheat, visual assessment of infested leaf area; format: in vivo; conditions: assessed 21 days after inoculation, dose rates Table 5: BIX 0.6, BIX+FLU 0.75, BIX+PTZ 1, BIX+FLU+PTZ 1 l/ha
[7] = test system: Alternaria alternata SDH-mutants; conditions: in vitro; Avenot et al., Crop Protection 29 (2010) 643-651; cited from earlier work
[8] = solo compound at 97.5 g a.i./ha
[9] = curative, application 1 day after inoculation
[10] = curative, application 4 days after inoculation
[11] = curative, application 8 days after inoculation
[12] = curative, application 11 days after inoculation
[13] = preventive, application 1 day before inoculation
[14] = preventive, application 4 days before inoculation
[15] = preventive, application 8 days before inoculation
[16] = preventive, application 11 days before inoculation

Row | Structure (SMILES) | Rating Scale: % Rating Type: Mean (Plant Part Rated: LEALOW) [1] [%] | % ABBOTT [1] [%] | Efficacy [%] % found [1] [%] | Rating Scale: % Rating Type: Mean (Plant Part Rated: LEAF) [2] [%] | % ABBOTT [2] [%] | Efficacy [%] % found [2] [%] | Rating Scale: % Rating Type: Mean (Plant Part Rated: FL-0-1) [3] [%] | % ABBOTT [3] [%] | Efficacy [%] % found [3] [%] | Efficacy [% Abbott] 1 dai [4, 8] [% Abbott] | Efficacy [% Abbott] 4 dai [4, 8] [% Abbott] | Efficacy [% Abbott] 1 dai ([4]; solo compound at 125 g a.i./ha) [% Abbott] | Efficacy [% Abbott] 4 dai ([4]; solo compound at 125 g a.i./ha) [% Abbott] | effect on mycelial growth of boscalid-resistant isolates carrying SDH-mutations [7] | further results
1 | OC(Cc1ccccc1Cl)(Cn1nc[nH]c1=S)C1(Cl)CC1 (stereo not shown) [(III) Prothioconazole, prothioconazole] | 6.4 | 72.4 | 72.4 | 30.0 | 68.4 | 68.4 | 1.8 | 36.4 | 36.4 | – | – | – | – | – | –
2 | Cn1cc(C(=O)Nc2ccc(F)cc2-c2ccc(Cl)c(Cl)c2)c(C(F)F)n1 [Bixafen, bixafen] | 14.7 | 36.5 | 36.5 | 36.3 | 61.8 | 61.8 | 2.3 | 18.2 | 18.2 | 91 | 38 | 91 | 32 | – | DNA Quantification [Septoria DNA], relative copynumbers, 1 dai [5, 9]: 135 n; DNA Quantification [Septoria DNA], relative copynumbers, 4 dai [5, 10]: 416 n; DNA Quantification [Septoria DNA], relative copynumbers, 8 dai [5, 11]: 10421 n; DNA Quantification [Septoria DNA], relative copynumbers, 11 dai [5, 12]: 19806 n; DNA Quantification [Septoria DNA], relative copy numbers, 1 dbi [5, 13]: 120 n; DNA Quantification [Septoria DNA], relative copy numbers, 4 dbi [5, 14]: 141 n; DNA Quantification [Septoria DNA], relative copy numbers, 8 dbi [5, 15]: 428 n; DNA Quantification [Septoria DNA], relative copy numbers, 11 dbi [5, 16]: 2853 n; Visual assessment [%] ABBOTT, 1 dai [6, 9]: 100%; Visual assessment [%] ABBOTT, 4 dai [6, 10]: 100%; Visual assessment [%] ABBOTT, 8 dai [6, 11]: 81.1%; Visual assessment [%] ABBOTT, 11 dai [6, 12]: 80.2%; Visual assessment [%] ABBOTT, 1 dbi [6, 13]: 100%; Visual assessment [%] ABBOTT, 4 dbi [6, 14]: 100%; Visual assessment [%] ABBOTT, 8 dbi [6, 15]: 96.7%; Visual assessment [%] ABBOTT, 11 dbi [6, 16]: 88.7%
3 | O=C(NCCc1ncc(C(F)(F)F)cc1Cl)c1ccccc1C(F)(F)F [Fluopyram, N-{2-[3-chloro-5-(trifluoromethyl)-2-pyridyl]ethyl}-α,α,α-trifluoro-ortho-toluamide] | 10.9 | 53.0 | 53.0 | 52.5 | 44.7 | 44.7 | 2.3 | 18.2 | 18.2 | 97 | 49 | – | – | strongly inhibited the mycelial growth | –
4 | Cn1cc(C(=O)Nc2ccccc2-c2cc(F)c(F)c(F)c2)c(C(F)F)n1 [Fluxapyroxad, fluxapyroxad] | – | – | – | – | – | – | – | – | – | 93 | 24 | 94 | 32 | – | –
5 | CC(C)CC(C)c1sccc1NC(=O)c1cn(C)nc1C(F)(F)F (stereo not shown) [penthiopyrad] | – | – | – | – | – | – | – | – | – | – | – | – | – | not affected | –
